Results taken from article PMC9575645 (Signal Transduction and Targeted Therapy, 2022).

Columns and labels:
[1] = test system: HSL phosphorylation; test: HSL phosphorylation by western blot in IAV-infected A549 cells; format: cell-based, human; settings: 5 μM or 50 μM
[2] = test system: HSL phosphorylation; test: HSL phosphorylation by western blot in SARS-CoV-2-infected Vero E6 cells; format: cell-based, African green monkey; settings: 5 μM or 50 μM
[3] = test system: SARS-CoV-2 (KCDC03); test: In vitro antiviral activity against SARS-CoV-2 in Vero E6 cells (CCIF viral yield, RT-qPCR); format: cell-based; settings: SARS-CoV-2; FFA-deprived condition in lipase inhibitor-treated cells; 100 µM
[4] = test system: Influenza A virus (H1N1) (PR8); settings: IAV; FFA-deprived condition in lipase inhibitor-treated cells; 100 µM
[5] = In vivo toxicity in hamsters (body weight, gross and histopathological organ changes); settings: 80 mg kg^-1 d^-1 atglistatin and 2.5 mg kg^-1 d^-1 remdesivir, singly or in combination
Experimental: Three groups of 3 hamsters were treated intraperitoneally with 20, 40, and 80 mg kg^-1 d^-1 of atglistatin prepared in a 100 μL vehicle [50% PEG400 in water (vol/vol)] Bid with a 12 h interval for four and a half consecutive days, respectively (Table S10). One group of 3 control anesthetized hamsters was administered intraperitoneally with 100 μL vehicle Bid with a 12 h interval for four and a half consecutive days (Table S10).
Histopathological changes in lungs, liver, kidney, heart, and spleen from the experimental mice or hamsters in each experimental group were determined as described elsewhere.^35 Briefly, each sample from the mice or hamsters in each experimental group was fixed in sufficient 10% neutral formalin at 20°C for 3-4 days, washed in tap water, then trimmed, and thereafter processed in the automatic embedding machine for the dehydration and paraffin embedment. Tissue sections, prepared on slides at a thickness of 3 μm by a microtome, were used for hematoxylin and eosin (H&E) staining or IHC as described below. H&E stained sections were observed under light microscopy. The morphological changes to lung, liver, kidney, heart, and spleen tissues were reviewed in a blinded manner as previous described.^35

Structure (SMILES) | viral-mediated HSL phosphorylation [1] | viral-mediated HSL phosphorylation [2] | virus replication on FFA supplementation [3] | virus replication on FFA supplementation [4] | toxicity, including body weight loss [5]
O=S(=O)(NCCNC/C=C/c1ccc(Br)cc1)c1cccc2cnccc12 [H89] | prevented viral-mediated HSL phosphorylation | prevented viral-mediated HSL phosphorylation | – | – | –
CCCCC/C=C\C/C=C\CCCCCCCC(=O)O [LA, linoleic acid] | – | – | rescue of replication | rescue of replication | –
CCCCCCCC/C=C\CCCCCCCC(=O)O [OA, oleic acid] | – | – | rescue of replication | rescue of replication | –
CCCCCCCCCCCCCCCC(=O)O [PA, palmitic acid] | – | – | rescue of replication | rescue of replication | –
CCC(CC)COC(=O)[C@H](C)N[P@](=O)(OC[C@H]1O[C@@](C#N)(c2ccc3c(N)ncnn23)[C@H](O)[C@@H]1O)Oc1ccccc1 [remdesivir] | – | – | – | – | no toxicity
